In patent publication US12391680B2, “Compounds and compositions for the treatment of cystic fibrosis” (FONDAZIONE ISTITUTO ITALIANO DI TECNOLOGIA, priority 2019, dated 2025):

How the values were obtained:
Type in all cases: cell-based
mutant CFTR = mutant CFTR (Homo sapiens, UniProt P13569); experiment: Fluorescence assay for CFTR activity (halide-sensitive YFP, HS-YFP); conditions: CFBE41o- and FRT cells with stable expression of mutant CFTR
Method: Mutant CFTR activity was determined with the functional assay based on the halide-sensitive yellow fluorescent protein, HS—YFP (Galietta et al., FEBS Lett 499:220-224, 2001). CFBE41o- and FRT cells with stable expression of mutant CFTR and HS—YFP were plated on clear-bottom 96-well black microplates (Code 3603, Corning Life Sciences) at a density of 50,000 cells/well and kept at 37° C. in 5% CO2 for 24 hours.
For the corrector assay, cells were treated for further 24 hours with test compounds, vehicle (DMSO), or the positive control VX-809. After treatment, the culture medium was removed and cells in each well were stimulated for 30 min at 37° C. with 60 μL PBS (containing 137 mM NaCl, 2.7 mM KCl, 8.1 mM Na2HPO4, 1.5 mM KH2PO4, 1 mM CaCl2, and 0.5 mM MgCl2) plus forskolin (20 μM) and genistein (50 μM).
For determination of potentiator activity on F508del-CFTR, cells were incubated for 24 hours at 27° C. to allow trafficking of the mutant protein to plasma membrane. Cells were then stimulated with for 30 min with PBS containing forskolin (20 μM) plus the compound to be tested at the desired concentration. For determination of potentiator activity on G551D-CFTR or G1349D-CFTR, cells were directly stimulated with forskolin plus test compound without previous incubation at low temperature. At the time of assay, microplates carrying CFBE41o- or FRT cells were transferred to microplate readers (BMG Labtech) equipped with high-quality excitation (HQ500/20×: 500±10 nm) and emission (HQ535/30M: 535±15 nm) filters for YFP (Chroma Technology). The assay consisted of a continuous 14 s fluorescence reading with 2 s before and 12 s after injection of an iodide-containing solution (165 μL of a modified PBS containing I^− instead of Cl^−; final I^− concentration in the well: 100 mM). Data were normalized to the initial background-subtracted fluorescence. Enhanced CFTR activity, induced by correctors and/or potentiators, results in accelerated I^− influx that in turn causes faster HS—YFP quenching (Pedemonte et al., Mol Pharmacol 68:1736-1746, 2005; Pedemonte et al., J Clin Invest 115:2564-2571, […]). To determine fluorescence quenching rate associated with I^− influx, the final 10 s of data for each well were fitted with an exponential function to extrapolate initial slope (dF/dt).
EC50 obtained are illustrated in Table 1 wherein+: EC50>2 μM; ++: 1.0 μM <EC50<2 μM; +++: EC50<1 μM.

F508del-CFTR [1] = molecular target: T1, F508del-CFTR (Homo sapiens, UniProt P13569, DEL508-508); experiment: Transepithelial electrical conductance (TEEC) in FRT cells expressing F508del-CFTR; set-up: expressed in transfected cells; host or cells: FRT cells; conditions: tested at 5.0 μM, 24 hrs incubation
T1 sequence (P13569 with tags, fused parts or gaps DEL508-508): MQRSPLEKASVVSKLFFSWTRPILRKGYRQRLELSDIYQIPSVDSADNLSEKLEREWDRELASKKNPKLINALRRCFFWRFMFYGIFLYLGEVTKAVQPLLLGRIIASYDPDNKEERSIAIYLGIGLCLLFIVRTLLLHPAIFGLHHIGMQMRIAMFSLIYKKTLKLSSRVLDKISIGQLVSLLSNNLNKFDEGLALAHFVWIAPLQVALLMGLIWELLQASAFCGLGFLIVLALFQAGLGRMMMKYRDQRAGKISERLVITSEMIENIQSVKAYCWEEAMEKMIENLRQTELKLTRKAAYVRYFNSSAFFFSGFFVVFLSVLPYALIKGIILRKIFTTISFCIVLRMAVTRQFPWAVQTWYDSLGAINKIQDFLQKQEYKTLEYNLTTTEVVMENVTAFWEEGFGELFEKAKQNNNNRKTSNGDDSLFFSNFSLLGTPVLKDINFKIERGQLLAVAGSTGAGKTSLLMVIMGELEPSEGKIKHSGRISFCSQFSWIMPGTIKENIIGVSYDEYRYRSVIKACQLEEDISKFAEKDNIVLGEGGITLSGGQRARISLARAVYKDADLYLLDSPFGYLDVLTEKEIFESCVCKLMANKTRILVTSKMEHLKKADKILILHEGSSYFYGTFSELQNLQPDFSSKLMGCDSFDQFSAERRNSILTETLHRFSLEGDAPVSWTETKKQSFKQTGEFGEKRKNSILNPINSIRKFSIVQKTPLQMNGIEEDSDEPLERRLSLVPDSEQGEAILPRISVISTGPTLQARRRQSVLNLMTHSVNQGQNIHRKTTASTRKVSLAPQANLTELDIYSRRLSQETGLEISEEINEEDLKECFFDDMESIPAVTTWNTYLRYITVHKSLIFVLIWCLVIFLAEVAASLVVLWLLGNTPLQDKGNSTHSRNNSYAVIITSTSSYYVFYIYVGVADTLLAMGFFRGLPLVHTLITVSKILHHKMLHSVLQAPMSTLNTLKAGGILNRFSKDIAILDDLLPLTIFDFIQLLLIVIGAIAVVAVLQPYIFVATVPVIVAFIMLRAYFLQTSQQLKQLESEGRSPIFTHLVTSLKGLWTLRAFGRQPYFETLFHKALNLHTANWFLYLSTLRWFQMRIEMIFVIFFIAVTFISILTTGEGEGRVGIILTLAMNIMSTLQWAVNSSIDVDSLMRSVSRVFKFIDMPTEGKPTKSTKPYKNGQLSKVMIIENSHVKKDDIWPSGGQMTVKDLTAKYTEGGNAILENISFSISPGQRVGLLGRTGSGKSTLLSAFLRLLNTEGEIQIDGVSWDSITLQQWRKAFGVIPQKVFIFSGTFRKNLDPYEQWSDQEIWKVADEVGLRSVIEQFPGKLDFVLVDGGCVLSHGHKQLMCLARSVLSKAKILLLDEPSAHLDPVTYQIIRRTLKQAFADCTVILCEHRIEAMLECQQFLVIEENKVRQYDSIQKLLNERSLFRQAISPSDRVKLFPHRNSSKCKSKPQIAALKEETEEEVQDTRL
Method: FRT cells expressing F508del-CFTR were plated on HTS Transwell-24 well permeable supports (Code 3379, Corning Life Sciences) at a density of 200,000 cells/well. After six days, cells were incubated for 24 hrs with test correctors, vehicle, or VX-809. Compounds were dissolved in both basolateral (800 μL) and apical (300 μL) culture medium. After treatment, the culture medium was removed and replaced on both sides with a saline solution containing (in mM): 130 NaCl, 2.7 KCl, 1.5 KH2PO4, 1 CaCl2, 0.5 MgCl2, 10 glucose, 10 Na-Hepes (pH 7.4). The basolateral and apical side received 800 μL and 100 μL, respectively. The 24-well tray with cells was placed on a block heater (SBH 130D, Stuart) to keep the temperature at 37° C. during the entire experiment. After 10 min, the basal transepithelial electrical resistance (TEER) across each layer of FRT cells was measured with a STX100C electrode pair connected to an EVOM2 voltohmeter (World Precision Instruments). To stimulate F508del-CFTR, each well received (apical side) 50 μL of saline solution containing 60 μM forskolin and 150 μM genistein (final concentrations: 20 μM forskolin, 50 μM genistein). Forskolin was also pipetted in the basolateral medium to obtain the 20 μM concentration. After 10 min TEER was measured again in each well. To block F508del-CFTR function, the inhibitor PPQ-102 was used at the final concentration of 30 μM. To achieve the desired concentration, 75 μL of the apical solution in each well was replaced with an equal volume of saline solution containing 20 μM forskolin, 50 μM genistein, and 60 μM PPQ-102. After further 10 min, the transepithelial electrical resistance was measured. All values of TEER were converted to transepithelial electrical conductance (TEEC) using the formula TEEC=1/TEER. The parameter to indicate activity of F508del-CFTR in each well (ATEEC) was calculated from the difference in TEEC measured after maximal stimulation of F508del-CFTR with forskolin and genistein and after block with PPQ-102.
Corrector activities obtained on selected compounds tested at 5.0 μM (expressed as ΔTEEC values) are illustrated in Table 2, wherein+: ΔTEEC<2000 μS; ++: 2000 μS <ΔTEEC<3000ρS; +++: ΔTEEC>3000 μS.

F508del-CFTR [2] = molecular target: T1, F508del-CFTR; experiment: Short-circuit current recordings on human bronchial epithelial cells from CF patients (F508del/F508del); set-up: Human bronchial epithelial (HBE) cells obtained from CF patients (F508del/F508del genotype); endogenous in cells; host or cells: primary human bronchial epithelial cells from CF patients, F508del/F508del; conditions: HBE cells F508del/F508del, 24 hrs treatment, CPT-cAMP plus VX-770 minus CFTRinh-172
Method: Human bronchial epithelial (HBE) cells obtained from CF patients (F508del/F508del genotype) were plated on Snapwell inserts (Code 3801, Corning Life Sciences) at a density of 500,000 cells per insert. Cells were cultured for two weeks in a differentiating medium whose compositions has been previously described (Scudieri et al., J Physiol 590:6141-6155, 2012). For the first week, the medium was kept on both apical and basolateral sides of inserts (submerged condition). For the second week, the apical medium was removed (air-liquid condition, ALC). To test the activity of correctors, cells were treated for 24 hrs with compounds dissolved in the basolateral medium. After treatment, Snapwell inserts carrying differentiated bronchial epithelia were mounted in a vertical chamber resembling an Ussing system with internal fluid circulation. Both apical and basolateral hemichambers were filled with 5 mL of a Krebs bicarbonate solution containing (in mM): 126 NaCl, 0.38 KH2PO4, 2.13 K2HPO4, 1 MgSO4, 1 CaCl2, 24 NaHCO3, and 10 glucose. Both sides were continuously bubbled with a gas mixture containing 5% CO2-95% air and the temperature of the solution was kept at 37° C. The transepithelial voltage was short-circuited with a voltage-clamp (DVC-1000, World Precision Instruments) connected to the apical and basolateral chambers via Ag/AgCl electrodes and agar bridges (1 M KCl in 1% agar). The offset between voltage electrodes and the fluid resistance were canceled before experiments. The short-circuit current was recorded with a PowerLab 4/25 (ADInstruments) analogical to digital converter connected to a Macintosh computer. […] The difference between the current measured with CPT-cAMP plus potentiator and the current remaining after CFTRinh-172 treatment (ΔICFTR) was taken as the parameter reflecting F508del-CFTR expression in the apical membrane.
Activities of selected compounds on HBE cells (expressed as ΔICFTR) are illustrated in Table 3 wherein+: ΔICFTR<2.0 μA; ++: 2.0 μA<ΔICFTR<3.0 μA; +++: ΔICFTR >3.0 μA.

mutant CFTR, sequence (P13569 with tags, fused parts or gaps DEL508-508): as above

Row | EC50 (mutant CFTR) [µM] | activity (corrector activity expressed as ΔTEEC) (F508del-CFTR [1]) | activity (ΔICFTR) (F508del-CFTR [2]) | SMILES
1 | < 1 | ++ (2000 μS <ΔTEEC<3000ρS) | – | NC(=O)c1sc2ccccc2c1C1CN(S(=O)(=O)c2ccc(OC(F)(F)F)cc2)CCO1 (racemic) [compound 039, rac-3-[4-[4-(trifluoromethoxy)phenyl]sulfonylmorpholin-2-yl]benzothiophene-2-carboxamide]
2 | < 1 | – | ++ (2.0 μA<ΔICFTR<3.0 μA) | NC(=O)c1sc2ccccc2c1C1CN(S(=O)(=O)c2ccc3c(c2)OCCO3)CCO1 (racemic) [compound 018, rac-3-[(4-(2,3-dihydro-1,4-benzodioxin-6-ylsulfonyl)morpholin-2-yl]benzothiophene-2-carboxamide]
3 | < 1 | – | – | NC(=O)c1sc2ccccc2c1C1CN(S(=O)(=O)c2ccc(Oc3ccccc3)cc2)CCO1 (racemic) [compound 006, rac-3-[4-(4-phenoxyphenyl)sulfonylmorpholin-2-yl]benzothiophene-2-carboxamide]
4 | > 2 | – | – | CCCCS(=O)(=O)N1CCOC(c2c(C(N)=O)sc3ccccc23)C1 (racemic) [compound 061, rac-3-[4-butylsulfonylmorpholin-2-yl]benzothiophene-2-carboxamide]
5 | > 2 | – | – | COC(=O)c1cccc(S(=O)(=O)N2CCOC(c3c(C(N)=O)sc4ccccc34)C2)c1 (racemic) [compound 007, rac-methyl 3-[2-(2-carbamoylbenzothiophen-3-yl)morpholin-4-yl]sulfonylbenzoate]
6 | > 2 | – | – | NC(=O)c1sc2ccccc2c1C1CN(S(=O)(=O)c2ccc(N3CCCC3=O)cc2)CCO1 (racemic) [compound 015, rac-3-[4-[4-(2-oxopyrrolidin-1-yl)phenyl]sulfonylmorpholin-2-yl]benzothiophene-2-carboxamide]
7 | > 2 | – | – | NC(=O)c1sc2ccccc2c1C1CN(S(=O)(=O)c2ccc(O)cc2)CCO1 (racemic) [compound 068, rac-3-[4-(4-hydroxyphenyl)sulfonylmorpholin-2-yl]benzothiophene-2-carboxamide]
8 | > 2 | – | – | NC(=O)c1sc2ccccc2c1C1CN(S(=O)(=O)c2ccccc2C(F)(F)F)CCO1 (racemic) [compound 066, rac-3-[4-[2-(trifluoromethyl)phenyl]sulfonylmorpholin-2-yl]benzothiophene-2-carboxamide]

Continued, molecule first:

Row | SMILES | EC50 (mutant CFTR) [µM] | activity (corrector activity expressed as ΔTEEC) (F508del-CFTR [1]) | activity (ΔICFTR) (F508del-CFTR [2])
9 | NC(=O)c1sc2ccccc2c1[C@H]1CN(S(=O)(=O)c2ccc(C(F)(F)F)cc2)CCO1 (single isomer, unassigned) [compound 043] | < 1 | +++ (ΔTEEC>3000 μS) | –
10 | Cc1nc2ccc(S(=O)(=O)N3CCO[C@H](c4c(C(N)=O)sc5ccccc45)C3)cc2o1 (single isomer, unassigned) [compound 071] | < 1 | – | +++ (ΔICFTR >3.0 μA)
11 | Cc1cc(S(=O)(=O)N2CCO[C@H](c3c(C(N)=O)sc4ccccc34)C2)ccc1F (single isomer, unassigned) [compound 013] | > 2 | – | ++ (2.0 μA<ΔICFTR<3.0 μA)
12 | NC(=O)c1sc2ccccc2c1[C@@H]1CN(S(=O)(=O)c2ccc(C(F)(F)F)cc2)CCO1 (single isomer, unassigned) [compound 042] | > 2 | + (ΔTEEC<2000 μS) | –
13 | NC(=O)c1sc2ccccc2c1C1CN(S(=O)(=O)c2ccc(-c3ccccc3)cc2)CCO1 (racemic) [compound 051, rac-3-[4-(4-phenylphenyl)sulfonylmorpholin-2-yl]benzothiophene-2-carboxamide] | < 1 | – | –
14 | NC(=O)c1sc2ccccc2c1C1CN(S(=O)(=O)c2c[nH]cn2)CCO1 (racemic) [compound 004, rac-3-[4-(1H-imidazol-4-ylsulfonyl)morpholin-2-yl]benzothiophene-2-carboxamide] | > 2 | – | –
15 | NC(=O)C1=C(C2CN(S(=O)(=O)c3ccc(C(F)(F)F)c(F)c3)CCO2)c2ccccc2S1(=O)=O (racemic) [compound 074, rac-1,1-dioxo-3-[4-[3-fluoro-4-(trifluoromethyl)phenyl]sulfonylmorpholin-2-yl]benzothiophene-2-carboxamide] | < 1 | – | –
16 | Cc1cc(S(=O)(=O)N2CCOC(c3c(C(N)=O)sc4ccccc34)C2)ccc1C(F)(F)F (racemic) [compound 044, rac-3-[4-[3-methyl-4-(trifluoromethyl)phenyl]sulfonylmorpholin-2-yl]benzothiophene-2-carboxamide] | 1 to 2 | – | ++ (2.0 μA<ΔICFTR<3.0 μA)
17 | Cc1ccc(F)cc1S(=O)(=O)N1CCOC(c2c(C(N)=O)sc3ccccc23)C1 (racemic) [compound 027, rac-3-[4-(5-fluoro-2-methyl-phenyl)sulfonylmorpholin-2-yl]benzothiophene-2-carboxamide] | > 2 | – | –
